Test results as given in patent US20100179225A1, “POI Prevention” (CYTOKINE PHARMASCIENCES, INC., priority 2008, published 2010).

Key:
Lewis rats = experiment: Intestinal injury (Park score) after syngeneic orthotopic small intestinal transplantation; type: in vivo; details: 1 mg/kg i.v. to donor and recipient
Experimental: (§1) Syngeneic orthotopic small intestinal transplantation was performed in Lewis rats as previously described (Schwarz N T, Nakao A, Nalesnik M A, Kalff J C, Murase N, Bauer A J. Protective effects of ex vivo graft radiation and tacrolimus on syngeneic transplanted rat small bowel motility. Surgery 2002; 131: 413-423). […] Then the graft vascular bed was perfused with chilled UW solution (University of Wisconcin) and the intestinal lumen was irrigated with 50 ml cold 0.9% NaCl solution containing […]. neomycin sulfate (Uro Nebacetin N, Nycomed, Germany). The graft was stored in cold UW solution during the preparation of the recipient. An end-to-side anastomosis between the graft aorta and the recipient infra-renal aorta, and between the graft vein and recipient vena cava, was performed. Approximately 80% of the recipient intestine was removed and enteric continuity was restored by proximal and distal end-to-end intestinal anastomoses. […]
Histological changes and intestinal injury were graded by determination of the Park score 3 and 18 hours after reperfusion. […] Probes were analyzed in a blinded way.
Syngeneic orthotopic small intestinal transplantation was performed as described above and histological changes and intestinal injury were graded by determination of the Park score 3 and 18 hours after reperfusion. […] Probes were analyzed in a blinded way.

swine [1] = experiment: Intestinal anastomotic healing in swine (bursting pressure, hydroxyproline content); type: in vivo; details: 1 mg/kg p.o. 14 hours and 3 hours, or once 2 hours (iv group), before operation, postoperative day 6
Experimental: Swine were fed with 1 mg/kg CPSI-2364 or placebo (2.5% mannitol) 14 hours and 3 hours before operation. In the iv group, 1 mg/kg CPSI 2364 was fed once 2 hours before operation. After premedication animals were intubated and a central venous catheter was applied. A laparotomy was performed under sterile conditions.

swine [2] = experiment: Gastrointestinal transit in swine (radio-opaque globes, geometric center) after IM; type: in vivo; details: 24 h after operation, mean+/−SEM
Experimental: Swine were fed with CPSI 2364 or placebo 14 hours and three hours before operation. In the iv group, CPSI 2364 was applied once two hours before operation. All animals were fed (non fasted). After premedication animals were intubated and a central venous catheter was applied. A laparotomy was performed under sterile conditions. The whole small bowel was eventrated and manipulated twice from duodenum to cecum between two fingers. In the sham group, a laparotomy was performed without intestinal manipulation. At the end of the operation, 15 radio-opaque globes were placed in the proximal small bowel. The abdominal wall was closed and swine were brought to an intensive care unit.
Swine underwent intestinal manipulation (IM) or laparotomy without IM (Sham). CPSI-2364 (1 mg/kg) or placebo (mannitol 2.5%) were administered orally (p.o.) twice at 14 hours and 3 hours before operation or intravenously (i.v.) once at 2 hours before operation. At the end of the operation, 15 radio-opaque globes were placed in the proximal small bowel. Twenty-four hours after operation animals were sacrificed and the radio-opaque globes were detected by x-rays radiography and the distribution along the gastrointestinal tract was calculated as the geometric center **p<0.001 vs. indicated probes by 1-way ANOVA followed by Bonferroni's post test. […]

ED1 positive cells = experiment: ED1 positive cell (monocyte/macrophage) infiltration into graft muscularis after small intestinal transplantation; type: in vivo, Lewis rats; details: 1 mg/kg i.v.; 18 h after reperfusion
Experimental: as §1, with “performed.” for “performed. Approximately 80% of the recipient intestine was removed and enteric continuity was restored by proximal and distal end-to-end intestinal anastomoses.”
ED1 and MPO+-cells were counted under a microscope (TE-2000, Nikon, Duesseldorf, Germany) in 5 randomly chosen areas in each specimen.
In order to evaluate cell populations which are known to be associated with inflammation processes and to initiate immunological processes within the muscularis, leukocyte infiltrates were evaluated after 18 h by MPO histochemistry (polymorphonuclear neutrophils) and ED1 immunohistochemistry (monocytes and passenger macrophages). […]

anastomotic bursting pressure levels vs placebo (swine [1]): No differences were observed
anastomotic hydroxyproline content vs placebo (swine [1]): No differences were observed
SMILES: C/C(=N\N=C(N)N)c1cc(NC(=O)CCCCCCCCC(=O)Nc2cc(/C(C)=N/N=C(N)N)cc(/C(C)=N/N=C(N)N)c2)cc(/C(C)=N/N=C(N)N)c1.CS(=O)(=O)O.CS(=O)(=O)O.CS(=O)(=O)O.CS(=O)(=O)O [CPSI-2364]
Park's score (Lewis rats; 3 hours after reperfusion): 1.83
Park's score (Lewis rats; 18 hours after reperfusion): 1.5
gastrointestinal transit, geometric center (GC) (swine [2]; 1 mg/kg i.v. once at 2 hours before operation): 14.01+/−0.44
gastrointestinal transit, geometric center (GC) (swine [2]; 1 mg/kg p.o. twice at 14 hours and 3 hours before operation): 13.00+/−0.27
ED1 positive cells in muscularis (ED1 positive cells): 54.8 cells/field of view (magnification 200×)
